{
  "source": "paper PMC3382068",
  "about": "(Bioorganic & medicinal chemistry, 2011)",
  "key": {"[1]": {"test_system": "PC3 prostate cancer cells", "settings": "cited from earlier work"}, "[2]": {"target": "T1, hIcmt (Homo sapiens, UniProt O60725)", "T1 sequence (O60725 whole entry, the tested form may be a part)": "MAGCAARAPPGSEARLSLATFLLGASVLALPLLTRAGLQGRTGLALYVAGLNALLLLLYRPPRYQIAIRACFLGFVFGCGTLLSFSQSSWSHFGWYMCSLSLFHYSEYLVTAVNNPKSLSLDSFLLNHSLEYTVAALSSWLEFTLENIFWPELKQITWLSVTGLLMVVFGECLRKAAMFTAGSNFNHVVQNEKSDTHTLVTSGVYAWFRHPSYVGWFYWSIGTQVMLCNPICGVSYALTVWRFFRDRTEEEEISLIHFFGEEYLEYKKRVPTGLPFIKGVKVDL", "test": "In vitro vapor diffusion methyltransferase assay, inhibition of hIcmt", "format": "biochemical", "settings": "for Loss of inhibitory activity as compared to compound 1a: fold; for hIcmt inhibition (in words): 10 μM compound, 25 μM AFC"}, "[3]": {"target": "T1, hIcmt", "settings": "read-out: IC50 against hIcmt; previously reported; cited from earlier work"}, "[4]": {"test_system": "Erk phosphorylation in Jurkat T cells", "test": "Signaling assay: anti-CD-3ε dependent Erk phosphorylation", "format": "cell-based", "settings": "25 μM, 24 h, then anti-CD-3ε stimulation"}, "[5]": {"test_system": "GFP-K-Ras in Jurkat T cells", "test": "Subcellular localization of GFP-K-Ras by fluorescence microscopy", "format": "cell-based", "settings": "0.1 μM, 24 hours"}, "[6]": {"target": "T1, hIcmt", "test": "Kinetic mode of inhibition and KI determination"}, "[7]": {"test_system": "Ras activation in Jurkat T cells", "test": "GST-RBD pull down assay of active GTP-bound Ras", "format": "cell-based", "settings": "25 μM, 24 h, then anti-CD-3ε stimulation"}},
  "note": "“Also recorded” adds a separate entry of the source.",
  "data": [
    {"compound": "CCCCCCCCn1cc(CC(N)=O)c2cc(-c3cccc(C)c3)ccc21", "note": "[Cysmethynil]", "values": [
      {"measurement": "Effect on PC3 prostate cancer cells", "setting": "[1]", "value": "induction of autophagic cell death"}
    ]},
    {"compound": "CC(C)=CCC/C(C)=C/CC/C(C)=C/CSC[C@H](NC(=O)c1ccccc1Sc1ccccc1)C(=O)O", "note": "[Compound 2d, (R)-2-(2-(phenylthio)benzamido)-3-(((2E,6E)-3,7,11-trimethyldodeca-2,6,10-trien-1-yl)thio)propanoic acid]", "values": [
      {"measurement": "Loss of inhibitory activity as compared to compound 1a", "setting": "[2]", "value": "roughly four-fold"}
    ]},
    {"compound": "CC(C)=CCC/C(C)=C/CC/C(C)=C/CSC[C@@H](C(=O)O)N(C)C(=O)c1ccccc1Oc1ccccc1", "note": "[Compound 20, (R)-2-(N-methyl-2-phenoxybenzamido)-3-(((2E,6E)-3,7,11-trimethyldodeca-2,6,10-trien-1-yl)thio)propanoic acid]", "values": [
      {"measurement": "hIcmt inhibition (in words)", "setting": "[2]", "value": "equivalent to our previous lead, 1a, in terms of percent inhibition"}
    ]},
    {"compound": "anthranilic farnesylcysteine [anthranilic acid analog]", "values": [
      {"measurement": "IC50", "setting": "[3]", "value": 7.1, "unit": "µM"}
    ]},
    {"compound": "CC(C)=CCC/C(C)=C/CC/C(C)=C/CSC[C@H](NC(=O)c1ccccc1Cc1ccccc1)C(=O)O", "note": "[Compound 2c, (R)-2-(2-benzylbenzamido)-3-(((2E,6E)-3,7,11-trimethyldodeca-2,6,10-trien-1-yl)thio)propanoic acid]", "values": [
      {"measurement": "Loss of inhibitory activity as compared to compound 1a", "setting": "[2]", "value": "roughly four-fold"}
    ]},
    {"compound": "CC(C)=CCC/C(C)=C/CC/C(C)=C/CC/C(C)=C/CSC[C@H](NC(=O)c1ccccc1Oc1ccccc1)C(=O)O", "note": "[Compound 19, (R)-2-(2-phenoxybenzamido)-3-(((2E,6E,10E)-3,7,11,15-tetramethylhexadeca-2,6,10,14-tetraen-1-yl)thio)propanoic acid]", "values": [
      {"measurement": "hIcmt inhibition (in words)", "setting": "[2]", "value": "significant loss of hIcmt inhibition"}
    ]},
    {"compound": "CC(C)=CC/C(=C/CSC[C@H](NC(=O)c1ccccc1Oc1ccccc1)C(=O)O)CCc1ccc(-c2ccccc2)cc1", "note": "[Compound 1b, N-2-Phenoxybenzoyl-S-3-(3-methyl-but-2-enyl)-5-(4-biphenyl)pent-2-enyl-L-cysteine]", "values": [
      {"measurement": "Decrease of Erk activation compared to the control", "setting": "[4]", "value": "approximately three-fold"},
      {"measurement": "Prevention of GFP-K-Ras membrane localization", "setting": "[5]", "value": "approximately 35%"},
      {"measurement": "Ki", "setting": "[6]", "value": "0.5 ± 0.07", "unit": "µM"},
      {"measurement": "Mode of inhibition", "setting": "[6]; AFC varied, inhibitor concentration fixed", "value": "mixed-mode inhibition; also recorded: mixed-type inhibition"},
      {"measurement": "α value", "setting": "[6]; mixed-type inhibition, competitive component dominated", "value": "greater than 1"},
      {"measurement": "Ras activation", "setting": "[7]", "value": "inhibited Ras activation significantly"}
    ]},
    {"compound": "CCCCCCCCCCCSC[C@H](NC(=O)c1ccccc1Oc1ccccc1)C(=O)O", "note": "[Compound 21, ((R)-2-(2-phenoxybenzamido)-3-(undecylthio)propanoic acid)]", "values": [
      {"measurement": "hIcmt inhibition (in words)", "setting": "[2]", "value": "particularly poor inhibitor of hIcmt"}
    ]}
  ]
}
